Laboratory results from patent US5124332A, “Substituted indoles as central nervous system agents” (Warner-Lambert Company, priority 1991, dated 1992).
pIC50: −log10 of the molar value. Counter-ions that a name gives are not always drawn. Like-named read-outs stand apart in the source and are kept apart here.

What was measured:
[1] = target: T1, [^3 H]-spiroperidol binding (Homo sapiens, UniProt P14416); experiment: Inhibition of [^3 H]-spiroperidol binding in a receptor assay
T1 construct: from tissue; own knowledge of the cited 1985 method, which predates the cloning of D2)
T1 sequence (P14416 whole entry): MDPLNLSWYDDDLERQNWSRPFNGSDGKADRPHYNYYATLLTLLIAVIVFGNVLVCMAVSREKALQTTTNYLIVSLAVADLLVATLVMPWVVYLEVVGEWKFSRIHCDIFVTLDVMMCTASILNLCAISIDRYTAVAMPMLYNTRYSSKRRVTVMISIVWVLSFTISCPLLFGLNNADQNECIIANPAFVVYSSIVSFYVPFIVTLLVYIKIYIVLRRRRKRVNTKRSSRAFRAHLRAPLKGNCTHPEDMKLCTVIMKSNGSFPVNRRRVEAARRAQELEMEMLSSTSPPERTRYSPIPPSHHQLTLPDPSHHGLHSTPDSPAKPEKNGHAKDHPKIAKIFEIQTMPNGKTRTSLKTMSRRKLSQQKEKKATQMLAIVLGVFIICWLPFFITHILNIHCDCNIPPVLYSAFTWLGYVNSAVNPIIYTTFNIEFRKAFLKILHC
Experimental: (§1) The compounds of Formula I are valuable dopaminergic agents. […] Thus, the compounds of Formula I were tested for their ability to inhibit locomotor activity in mice according to the assay described by J. R. McLean, et al, Pharmacology, Biochemistry and Behavior, Volume 8, pages 97-99 (1978); and for their ability to inhibit [^3 H]-spiroperidol binding in a receptor assay described by D. Grigoriadis and P. Seman, Journal of Neurochemistry, Volume 44, pages 1925-1935 (1985). The above test methods are incorporated herein by reference. The data in the table show the dopaminergic activity of representative compounds of Formula I.

[2] = tested on: locomotor activity in mice; experiment: Inhibition of locomotor activity in mice; assay type: in vivo; details: Mus musculus, read-out: Inhibition of Locomotor Activity in Mice ED50
Experimental: as §1

[3] = [^3 H]spiroperidol, receptor assay, read-out: Inhibition of [^3 H]Spiroperidol Binding IC50

SMILES | pIC50 [1, 3] | ED50 ([2]; mice, IP) [mg/kg] | pIC50 [1] | ED50 ([2]; ip) [mg/kg]
c1ccc(N2CCN(CC[C@H]3CC[C@@H](c4c[nH]c5ccccc54)CC3)CC2)nc1 [Example 2, Cis 3-[4-[2-[4-(2-pyridinyl)-1-piperazinyl]ethyl]cyclohexyl]-1H-indole] | 6.71 | 4.7 | – | –
C1=C(c2ccccc2)CCN(CC[C@H]2CC[C@@H](c3c[nH]c4ccccc43)CC2)C1 [Example 6, Cis 3-[4-[2-(3,6-dihydro-4-phenyl-1(2H)-pyridinyl)ethyl]cyclohexyl]-1H-indole] | – | – | 7.41 | 16.6
C1=C(c2ccccc2)CCN(CC[C@H]2CC[C@H](c3c[nH]c4ccccc43)CC2)C1 [Example 5, Trans 3-[4-[2-(3,6-dihydro-4-phenyl-1(2H)-pyridinyl)ethyl]cyclohexyl]-1H-indole] | – | – | 7.92 | 9
C1=C(c2cccs2)CCN(CC[C@H]2CC[C@H](c3c[nH]c4ccccc43)CC2)C1 [Example 7, Trans 3-[4-[2-(3,6-dihydro-4-(2-thienyl)-1(2H)-pyridinyl)ethyl]cyclohexyl]-1H-indole] | 6.06 | – | – | 11.7
c1ccc(N2CCN(CC[C@H]3CC[C@H](c4c[nH]c5ccccc54)CC3)CC2)nc1 [Example 1, trans 3-[4-[2-[4-(2-pyridinyl)-1-piperazinyl]ethyl]cyclohexyl]-1H-indole] | 7.16 | 1.4 | – | –
C1=C(c2c[nH]c3ccccc23)CCC(CCN2CCN(c3ccccn3)CC2)C1 (stereo not shown) [Example 16] | 6.57 | 6.25 | – | –

Continued, in another order:

pIC50 [1, 3] | SMILES | ED50 ([2]; mice, IP) [mg/kg] | pIC50 [1] | ED50 ([2]; ip) [mg/kg]
6.46 | c1cnc(N2CCN(CC[C@H]3CC[C@@H](c4c[nH]c5ccccc54)CC3)CC2)nc1 [Example 4, Cis 3-[4-[2-[4-(2-pyrimidinyl)-1-piperazinyl]ethyl]cyclohexyl]-1H-indole, hydrochloride] | 8.6 | – | –
6.65 | c1cnc(N2CCN(CC[C@H]3CC[C@H](c4c[nH]c5ccccc54)CC3)CC2)nc1 [Example 3, Trans 3-[4-[2-[4-(2-pyrimidinyl)-1-piperazinyl]ethyl]cyclohexyl]-1H-indole,hydrochloride] | 3.3 | – | –
